US9140688B2, “Sperm staining and sorting methods” (INGURAN, LLC, priority 2011, dated 2015)

What was measured:
Format in all cases: cell-based
[1] = system: bovine sperm; experiment: Post thaw percent intact acrosomes (PIA) of sex sorted bovine sperm (Example 1); conditions: average over all bulls
Description: (§1) Sperm was collected from 10 different bulls on a routine collection schedule using an artificial vagina over the course of 4 days. The 10 bulls included both Jersey bulls and Holstein bulls. All ejaculates contained greater than 60% progressive motility and greater than 70% morphological normal sperm. Antibiotics were added within 15 minutes of collection.
Red food dye treatment 40% —A reduced volume of red food dye No. 40 control was established. Sperm was diluted to 160×10^6 sperm per ml in a modified TALP buffer, as described in Table 1, at a pH of 7.4. Samples collected from Jersey bulls were incubated with 16 μl of Hoechst 33342 per 2 ml of sample for between 45 and 60 minutes at 34° C., while samples collected from Holstein bulls were incubated 17 μl of Hoechst 33342 per 2 ml of sample for between 45 and 60 minutes at 34° C. After incubation an equal volume of a second modified TALP was added reducing the concentration to 80×10^6. The second modified TALP includes the components described in Table 1 with the addition of 4% egg yolk, 40 μM red food dye No. 40 (20 g/L) and the pH dropped to 5.5 with HCl. […]
(§2) Straws were thawed the following day for motility measurements at 0 hour and 3 hours. Percent intact acrosomes were measured as well, and the overall averages over all bulls on each day are illustrated in Table 3. […]

[2] = system: bovine sperm; experiment: Post thaw motility of sex sorted, frozen-thawed bovine sperm (Example 1); conditions: average over all bulls, Red with 16-17 μl, Yellow with 14-15 μl Hoechst 33342 per 2 ml; for Post thaw motility, average 0 Hour: dye 20 g/L in second TALP
Description: as §1
Red food dye treatment 40% —A reduced volume of red food dye No. 40 control was established. Sperm was diluted to 160×10^6 sperm per ml in a modified TALP buffer, as described in Table 1, at a pH of 7.4. Samples collected from Jersey bulls were incubated with 16 μl of Hoechst 33342 per 2 ml of sample for between 45 and 60 minutes at 34° C., while samples collected from Holstein bulls were incubated 17 μl of Hoechst 33342 per 2 ml of sample for between 45 and 60 minutes at 34° C. After incubation an equal volume of a second modified TALP was added reducing the concentration to 80×10^6. The second modified TALP includes the components described in Table 1 with the addition of 4% egg yolk, 40 μM red food dye No. 40 (20 g/L) and the pH dropped to 5.5 with HCl.
Yellow Food dye treatment—Yellow food dye was included in a second group at an equal concentration. Sperm was diluted to 160×10^6 sperm per ml in a modified TALP buffer, as described in Table 1, at a pH of 7.4. Samples collected from Jersey bulls were incubated with 14 μl of Hoechst 33342 per 2 ml of sample for between 45 and 60 minutes at 34° C., while sample collected from Holstein bulls were incubated 15 μl of Hoechst 33342 per 2 ml of sample for between 45 and 60 minutes at 34° C. After incubation an equal volume of a second modified TALP was added reducing the concentration to 80×10^6. The second modified TALP includes the components described in Table 1 with the addition 4% egg yolk, 20 g/L yellow food dye No. 6 and a pH dropped to 5.5 with HCl.
Just prior to sorting, each sample was filtered though a 40 μm nylon mesh. Each sample was sorted with an MoFlo SX XDP (Beckman Coulter, Inc., CA USA) operating at 40 psi. A tris-citrate-fructose sheath fluid was used comprising Tris(hydroxymethyl)aminomethane (Sigma Chemical Co, St. Louis, Mo., USA) citric acid monohydrate (Sigma Chemical Co, St. Louis, Mo., USA) and fructose (Sigma Chemical Co, St. Louis, Mo., USA). Antibiotics were additionally added to the sheath fluid.
Unquenched sperm having the desired sex characteristics were collected into a single tube with a tris-egg yolk catch fluid and the remaining sperm was removed with waste. […]
as §2

[3] = system: canine sperm; experiment: Post thaw motility of sex sorted canine sperm on CASA (Example 4); conditions: for Motile, average / Progressive, average: 0 Hr post thaw
Description: Sperm was collected from a single canine at room temperature into CaniPro Chill 5, available from Minitube, Wis., USA, then centrifuged into a pellet and resuspended in a Tris buffer at a pH of 6.8.
Samples were extended to 40×10^6 sperm/ml in 1 ml volumes with the Tris buffer described in Example 1 but set to a pH of 7.2. Ten samples were then stained 4, 4, 5, 5, 7, 8, 8, 9, 9, and 10 μL of Hoechst 33342 and quenched with one of two quenching dyes at a concentration of 50 μM in a second buffer Tris buffer.
Red food dye No. 40 quencher—1 ml Tris at a pH 6.3 was added with red food dye No. 40 into samples stained with 4, 5, 8, 9, 10 μL Hoechst 33342. The red food dye No. 40 was added at a concentration of about 50 μM.
Yellow food dye No. 6 quencher—1 ml Tris at a pH 6.3 was added with yellow food dye No. 6 into samples stained with 4, 5, 7, 8, 9 μL Hoechst 33342. The yellow food dye No. 6 was added at the same concentration as the red food dye No. 40 quencher, at about 50 μM.
5 million cells were sex sorted with a MoFlo SX XPD into 50 mL Falcon tubes having 3.5 mL of a Tris-egg yolk catch fluid, described in Example 1 for both X and Y populations. Two samples were sorted, the red food dye No. 40 quenched treatment with 9 μL Hoechst 33342 and the yellow food dye […] quenched treatment with 7 μL Hoechst 33342.
Straws were then frozen and stored in liquid nitrogen.
Straws were thawed for 30 sec in a 38° C. water bath and their motilities were examined on CASA.
Table 12 illustrates the average motilities and progressive motilities for the sorted treatments. Canine sperm quenched with yellow food dye No. 6 provided about 4.5% more motile sperm in the X population and 6.5% more motile sperm in the Y population. Similarly, the yellow quenched dye provided 7% better progressive motility in the X population and 8% better progressive motility in the Y population.

[4] = system: elk sperm; experiment: Post thaw motility of bulk sorted elk sperm (Example 3); conditions: 0 HR; RED TALP with 16 μL, Y6 with 14 μL Hoechst 33342
Description: Each of deer and elk were collected in the Tris-egg yolk catch fluid described as a catch media in Example 1, and shipped for sorting.
A portion of each of the deer and the elk were stained by the red food dye No. 40 treatment 40% with 16 μL Hoechst 33342 and the yellow food dye No. 6 treatment with 14 μL Hoechst 33342 as described in Example 1.
Samples were each bulk sorted with the same machine and parameters described in Example 1. Both sorted X and sorted Y sperm were collected into a single catch. The sorted samples were then frozen like those described in Example 1.
Frozen thawed samples were then tested for post thaw motilities and post thaw DNA fragmentation. Post thaw motilities were slightly higher in Elk sorted with a yellow quencher, while a more significant difference existed in progressive motility. In Table 10, post thaw DNA fragmentation in Elk can be seen at about double after 48 hours when red food dye No. 40 is compared to yellow food dye No. 6 as a dead quencher.

| Structure (SMILES) | Average PIA (percent intact acrosomes) [1] | Post thaw motility, average 3 Hour [2] | Post thaw motility, average 0 Hour [2] | Motile, average ([3]; X population) | Progressive, average ([3]; X population) | Motile, average ([3]; Y population) | Progressive, average ([3]; Y population) | Post Thaw Motility Elk, Motile [4] | Post Thaw Motility Elk, Progressive [4] | better progressive motility than with red quencher ([3]; X population) | more motile sperm than with red quencher ([3]; X population) | better progressive motility than with red quencher ([3]; Y population) | more motile sperm than with red quencher ([3]; Y population) |
| --- | --- | --- | --- | --- | --- | --- | --- | --- | --- | --- | --- | --- | --- |
| COc1cc(S(=O)(=O)O)c(C)cc1N=Nc1c(O)ccc2cc(S(=O)(=O)O)ccc12 [Red 40, 6-hydroxy-5-[(2-methoxy-5-methyl-4-sulfophenyl)azo]-2-naphthalenesulfonic acid, reference compound] | 70.8% | 47.0% | 56.6% | 19.5 | 11.5 | 18.5 | 13 | 51.0 | 29.0 |  |  |  |  |
| O=S(=O)([O-])c1ccc(N=Nc2c(O)ccc3cc(S(=O)(=O)[O-])ccc23)cc1.[Na+].[Na+] [Yellow 6, Disodium 6-hydroxy-5-[(4-sulfophenyl)azo]-2-naphthalenesulfononate] | 71.3% | 49.0% | 57.7% | 24 | 18.5 | 25 | 21 | 55.5 | 38.0 | 7% | about 4.5% | 8% | 6.5% |
